According to patent publication US20090082368A1, “METHODS OF MODULATING NEUROTROPHIN-MEDIATED ACTIVITY” (PainCeptor Pharma Corporation, priority 2007, published 2009):
Read-outs that look alike come from different tables or passages of the source.

Columns and labels:
[1] = tested on: NGF-induced ERK phosphorylation; assay: Inhibition of NGF-induced Erk 1/2 phosphorylation (pERK); assay type: cell-based; details: Rattus norvegicus, Table 2
Experimental: This assay is useful for establishing that the compounds of the invention are functional NGF antagonists, not receptor agonists (an agonist could conceivably block NGF binding but actually activate the receptor). Erk 1/2 is a kinase activated down stream of TrkA and is a well studied member of the NGF-induced signal transduction cascade.
PC12 cells expressing TrkA and p75 are acutely exposed to 1 ng/mL NGF (15 min; 37° C.; 5% CO2) that is pre-incubated (30 min; room temperature) with or without the compounds. Cells are lysed in Laemmli sample buffer (for SDS-PAGE) or a lysis buffer containing Triton X-100 (for ELISA). Following SDS-PAGE, proteins are electroblotted onto nitrocellulose and immunoprobed for phosphorylated Erk 1 and 2. Blocking and primary antibody incubations of immunoblots are performed in Tris-buffered saline-Tween (10 mM Tris, pH 8.0, 150 mM NaCl, and 0.2% Tween 20) supplemented with 5% (w/v) bovine serum albumin (BSA); secondary antibody incubations are performed in 5% (w/v) dried skim milk powder. Immunoreactive bands are detected by chemiluminescence.
A quantitative method to detect phosphorylated Erk 1/2 by immunofluorescence is also used. Neuroscreen-1 cells are grown in a 96 well plate. NGF preincubated with or without the compounds for 30 minutes, is added to the cells for 5 minutes at 37° C. Cells are then fixed and stained with an antibody against phosphor-ERK 1/2. A fluorescently labeled secondary antibody is used to show the presence of phosphorylated ERK 1/2. Quantitative results are generated by photographing the wells with light of the appropriate wavelength, followed by software based image analysis.

[2] = tested on: NGF receptors on PC12 cells (TrkA+p75); assay: NGF binding (125I-NGF) using PC12 cells; parameters: species or system rat
Experimental: NGF binding was evaluated using methods familiar to those who are skilled in the art. Briefly, cells expressing one or both NGF receptors (PC12: TrkA+p75; A875: p75 alone; HEK/CHO_trkA: TrkA alone) were harvested by replacing the medium with the cell dissociation buffer (Amersham) and incubating at 37° C. for 15 min. […] For most compounds, multiple dose-response curves were generated.
The IC50 data shown in Tables A-J were acquired using the procedure described herein using PC12 cells.

[3] = tested on: spontaneous pain evoked by intraplantar injection of formalin in the rat; assay: Formalin model of acute tonic pain; assay type: in vivo; details: for pain intensity as evaluated by the licking behavior: s.c. 30 min prior to formalin, 2E 0.1-10 mg/kg, 1G 0.4-20 mg/kg, 47G 10-300 μmol/kg, 50G 30 and 100 μmol/kg
Experimental: Male Sprague-Dawley rats are housed together in groups of three animals under standard conditions with unrestricted access to food and water. All experiments are conducted according to the ethical guidelines for investigations of experimental pain in conscious animals (Zimmerman, 1983).
Assessment of formalin-induced flinching behavior in normal, uninjured rats (body weight 200-300 g) is made after formalin (2.5% in saline, 50-100 μl, s.c.) is injected into the plantar surface of the hindpaw using a 27G needle. Rats are pretreated with test compounds either administered intravenously (IV), by subcutaneous injection (SC) or by orally (PO).
Nociceptive behavior is determined manually every 5 min by measuring the amount of time spent in each of four behavioral categories: 0, treatment of the injected hindpaw is indistinguishable from that of the contralateral paw; 1, the injected paw has little or no weight placed on it; 2, the injected paw is elevated and is not in contact with any surface; 3, the injected paw is licked, bitten, or shaken. A weighted nociceptive score, ranging from 0 to 3 is calculated by multiplying the time spent in each category by the category weight, summing these products, and dividing by the total time for each 5 min block of time. (Coderre et al., Pain 1993; 54: 43). On the basis of the resulting response patterns, […] of nociceptive behavior are identified and scored: first phase (P1; 0-5 min), interphase (Int; 6-15 min), second phase (P2; […]), phase 2A (P2A; 16-40 min) and phase 2B (P2B; 41-60 min).
Statistical analysis is performed using the Prism™ 4.01 software package (GraphPad, San Diego, Calif., USA). The difference in response levels between treatment groups and control vehicle group is analyzed using an ANOVA followed by Bonferroni's method for post-hoc pair-wise comparisons. A p value<0.05 is considered to be significant.

PC12 cells = assay: Inhibition of NGF-induced neurite outgrowth; assay type: cell-based; details: Rattus norvegicus, PC-12, 96 h, Table 3, 4 days exposure to NGF
Experimental: This assay is run as a further functional marker of NGF antagonism and takes advantage of the differentiation of PC12 cells (neurite outgrowth) induced by NGF. Cultures of PC12 cells are grown on Terasaki plates pre-coated with poly-D-lysine. Cells are exposed to NGF (1-50 (preferably 5) ng/ml) to induce neurite outgrowth as described elsewhere [LA Greene & AS Tischler, Establishment of a noradrenergic clonal line of rat adrenal pheochromocytoma cells which respond to nerve growth factor, Proc Natl Acad Sci USA. 1976 July; 73(7): 2424-2428]. In addition to NGF, cells are exposed to varying concentration of the compounds or vehicle. Following 4 days of exposure to NGF in the presence or absence of compound, neurite outgrowth is quantified. A neurite is scored if its caliber from origin to terminal is approximately the same and the length is equal to or greater than 1.5 the cell body diameter. The number of neurite bearing cells per total number of viable cells is calculated for each condition; the number of cells with neurites in the presence of NGF (without compound exposure) is considered to represent maximal (100%) outgrowth, to which the inhibitory effect of compounds of the invention on NGF-induced outgrowth is compared.

[4] = tested on: hyperalgesia from acute paw inflammation caused by intraplantar λ-carrageenan; assay: Carrageenan model (inflammatory pain); assay type: in vivo; details: rat, SC 10 min pre- and 3 h post-carrageenan, tested 4 h post; 1G 20 mg/kg, 50G 2×105 mg/kg
Experimental: Acute inflammatory hyperalgesia is induced in rats by unilateral injection of 150 μl of a 3% solution of λ-carrageenan into the plantar surface of the left hind paw 3-5 hours prior to testing. Thermal hyperalgesia, mechanical allodynia, mechanical hyperalgesia, weight bearing asymmetry and paw inflammation are determined. Rats are pretreated with test compounds either administered intravenously (IV), by subcutaneous injection (SC) or by oral gavage (PO). Thermal nociceptive thresholds are determined according to the method described elsewhere (Hargreaves et al., 1988). Briefly, through the glass surface, a radiant heat source (8V, 50 W projector bulb) is focused onto the plantar surface of the hind paw. The rat's paw-withdrawal latency to this stimulus is recorded to the nearest 0.1 s. Each latency score is an average of three trials, which are separated by at least 5 min. In all rats, both the injured and uninjured hind paws are similarly tested, allowing direct comparisons between inflamed and non-inflamed paws. Mechanical hyperalgesia is determined by measuring the difference of withdrawal thresholds in response to increasing pressure in the inflamed vs contralateral paw using the Randall-Sellito Paw pressure meter (IITC Life Science) (Randall L O and Sellito J J., 1957). Briefly, rats are held in a contention jacket suspended by a stand and allowed to acclimate for 10 min. […]

[5] = Table 2, read-out: NGF Binding Assay IC50
[6] = Table J (Formula VIII), NGF binding, PC12 cells, read-out: IC50

SMILES | IC50 [1] | IC50 [2, 5] | IC50 ([2]; Table 3, read-out: NGF Binding Assay IC50) | IC50 [2, 6] | pain intensity as evaluated by the licking behavior [3] | ED50 ([3]; sc, given 30 min prior to formalin injection, read-out: ED50, number of licking and biting episodes in phase IIa of the formalin test) | IC50 (PC12 cells) | mechanical hyperalgesia (Randall-Sellito) [4] | thermal hyperalgesia (Hargreaves' assay) [4]
Cn1nnnc1-c1cc2c3c(cccc3c1)C(=O)N(CCCC(=O)O)C2=O [Compound 47G, 4-[5-(1-Methyl-1H-tetrazol-5-yl)-1,3-dioxo-1H-benzo[de]isoquinolin-2(3H)-yl]butanoic acid] | 15 to 25 µM | < 10 µM | < 10 µM | < 10 µM | dose-dependent reduction of the pain intensity | ~100 µmol/kg | 0.1 to 5 µM |  | 
O=C(O)CCCN1C(=O)c2cccc3cc(-n4cnnn4)cc(c23)C1=O [Compound 50G, 4-[1,3-Dioxo-5-(1H-tetrazol-1-yl)-1H-benzo[de]isoquinolin-2(3H)-yl]butanoic acid] | 5 to 15 µM | < 10 µM |  | < 10 µM | dose-dependent reduction of the pain intensity |  |  | marginally improving the mechanical hyperalgesia | significantly reversed the thermal hyperalgesia
